Results published in ChEMBL document CHEMBL4346655, “Synthesis and biological activities of artemisinin-piperazine-dithiocarbamate derivatives” (Eur J Med Chem, 2019).

Legend:
SMMC-7721 [1] = test: Cytotoxicity against human SMMC7721 cells incubated for 72 hrs by MTT assay; format: functional, cell-based; details: SMMC-7721, 72 h
L02 = test: Cytotoxicity against human L02 cells incubated for 72 hrs by MTT assay; format: cell-based; details: L02, 72 h
RWPE-1 = test: Cytotoxicity against human RWPE1 cells incubated for 72 hrs by MTT assay; format: cell-based; details: RWPE-1, 72 h
SMMC-7721 [2] = test: Induction of apoptosis in human SMMC7721 cells assessed as early apoptotic cells at 1 ug/ml incubated for 72 hrs by Annexin V-FITC/PI staining based flow cytometric analysis (reference value: 1.31 to 1.65%); format: functional
DU-145 = test: Cytotoxicity against human DU145 cells incubated for 72 hrs by MTT assay; format: functional, cell-based; details: DU-145, 72 h
SMMC-7721 [3] = test: Induction of apoptosis in human SMMC7721 cells assessed as necrotic cells at 1 ug/ml incubated for 72 hrs by Annexin V-FITC/PI staining based flow cytometric analysis (reference value: 0.52 to 0.72%); format: functional
SMMC-7721 [4] = test: Induction of apoptosis in human SMMC7721 cells assessed as late apoptotic cells at 50 ug/ml incubated for 72 hrs by Annexin V-FITC/PI staining based flow cytometric analysis (reference value: 1.63 to 2.82%); format: functional
CCD-18Co = test: Cytotoxicity against human CCD-18Co cells incubated for 72 hrs by MTT assay; format: cell-based
SMMC-7721 [5] = test: Induction of apoptosis in human SMMC7721 cells assessed as live cells at 10 ug/ml incubated for 72 hrs by Annexin V-FITC/PI staining based flow cytometric analysis (reference value: 94.81 to 96.55%); format: functional
MCF7 = test: Cytotoxicity against human MCF7 cells incubated for 72 hrs by MTT assay; format: functional, cell-based; details: MCF7, 72 h
HCT-116 = test: Cytotoxicity against human HCT116 cells incubated for 72 hrs by MTT assay; format: functional, cell-based; details: HCT-116, 72 h
SMMC-7721 [6] = test: Induction of apoptosis in human SMMC7721 cells assessed as late apoptotic cells at 10 ug/ml incubated for 72 hrs by Annexin V-FITC/PI staining based flow cytometric analysis (reference value: 1.63 to 2.82%); format: functional
MCF-10A = test: Cytotoxicity against human MCF10A cells incubated for 72 hrs by MTT assay; format: cell-based
SMMC-7721 [7] = test: Induction of apoptosis in human SMMC7721 cells assessed as necrotic cells at 50 ug/ml incubated for 72 hrs by Annexin V-FITC/PI staining based flow cytometric analysis (reference value: 0.52 to 0.72%); format: functional
SMMC-7721 [8] = test: Induction of apoptosis in human SMMC7721 cells assessed as live cells at 1 ug/ml incubated for 72 hrs by Annexin V-FITC/PI staining based flow cytometric analysis (reference value: 94.81 to 96.55%); format: functional
SMMC-7721 [9] = test: Induction of apoptosis in human SMMC7721 cells assessed as late apoptotic cells at 1 ug/ml incubated for 72 hrs by Annexin V-FITC/PI staining based flow cytometric analysis (reference value: 1.63 to 2.82%); format: functional
SMMC-7721 [10] = test: Induction of apoptosis in human SMMC7721 cells assessed as live cells at 50 ug/ml incubated for 72 hrs by Annexin V-FITC/PI staining based flow cytometric analysis (reference value: 94.81 to 96.55%); format: functional
SMMC-7721 [11] = test: Induction of apoptosis in human SMMC7721 cells assessed as early apoptotic cells at 10 ug/ml incubated for 72 hrs by Annexin V-FITC/PI staining based flow cytometric analysis (reference value: 1.31 to 1.65%); format: functional
SMMC-7721 [12] = test: Induction of apoptosis in human SMMC7721 cells assessed as necrotic cells at 10 ug/ml incubated for 72 hrs by Annexin V-FITC/PI staining based flow cytometric analysis (reference value: 0.52 to 0.72%); format: functional
SMMC-7721 [13] = test: Induction of apoptosis in human SMMC7721 cells assessed as early apoptotic cells at 50 ug/ml incubated for 72 hrs by Annexin V-FITC/PI staining based flow cytometric analysis (reference value: 1.31 to 1.65%); format: functional

SMILES	IC50 (SMMC-7721 [1])	IC50 (L02)	also measured
C[C@H]1[C@H](N2CCN(C(=S)SCC(=O)OCc3ccccc3)CC2)O[C@@H]2O[C@@]3(C)CC[C@H]4[C@H](C)CC[C@@H]1[C@@]24OO3	33.2 nM	150 nM	–
C[C@H]1[C@H](N2CCN(C(=S)SCc3ccc(Br)cc3)CC2)O[C@@H]2O[C@@]3(C)CC[C@H]4[C@H](C)CC[C@@H]1[C@@]24OO3	7 nM	150 nM	–
C[C@H]1[C@@H](O)O[C@@H]2O[C@@]3(C)CC[C@H]4[C@H](C)CC[C@@H]1[C@@]24OO3 [ARTENIMOL]	> 100 nM	360 nM	–
Cc1ccc(CSC(=S)N2CCN([C@@H]3O[C@@H]4O[C@@]5(C)CC[C@H]6[C@H](C)CC[C@@H]([C@H]3C)[C@@]46OO5)CC2)cc1	10.2 nM	230 nM	–
CC[C@]1(O)C[C@H]2CN(CCc3c([nH]c4ccccc34)[C@@](C(=O)OC)(c3cc4c(cc3OC)N(C=O)[C@H]3[C@@](O)(C(=O)OC)[C@H](OC(C)=O)[C@]5(CC)C=CCN6CC[C@]43[C@@H]65)C2)C1 [VINCRISTINE]	10.3 nM	60 nM	–
CCCCCSC(=S)N1CCN([C@@H]2O[C@@H]3O[C@@]4(C)CC[C@H]5[C@H](C)CC[C@@H]([C@H]2C)[C@@]35OO4)CC1	37.1 nM	180 nM	–
C[C@H]1[C@H](N2CCN(C(=S)SCc3ccc(Cl)cc3)CC2)O[C@@H]2O[C@@]3(C)CC[C@H]4[C@H](C)CC[C@@H]1[C@@]24OO3	28.4 nM	170 nM	–
Nc1ccn([C@@H]2O[C@H](CO)[C@@H](O)[C@@H]2O)c(=O)n1 [CYTARABINE]	27.1 nM	210 nM	–
CCCCCCCCCCCCCCCCCCSC(=S)N1CCN([C@@H]2O[C@@H]3O[C@@]4(C)CC[C@H]5[C@H](C)CC[C@@H]([C@H]2C)[C@@]35OO4)CC1	16 nM	130 nM	–
C[C@H]1[C@H](N2CCN(C(=S)SCc3ccc4ccccc4c3)CC2)O[C@@H]2O[C@@]3(C)CC[C@H]4[C@H](C)CC[C@@H]1[C@@]24OO3	24.3 nM	160 nM	–
C[C@H]1[C@H](N2CCN(C(=S)SCc3ccccc3)CC2)O[C@@H]2O[C@@]3(C)CC[C@H]4[C@H](C)CC[C@@H]1[C@@]24OO3	26 nM	300 nM	–
C[C@H]1[C@H](N2CCN(C(=S)SCc3ccc([N+](=O)[O-])cc3)CC2)O[C@@H]2O[C@@]3(C)CC[C@H]4[C@H](C)CC[C@@H]1[C@@]24OO3	16.7 nM	170 nM	–
Cc1ccccc1CSC(=S)N1CCN([C@@H]2O[C@@H]3O[C@@]4(C)CC[C@H]5[C@H](C)CC[C@@H]([C@H]2C)[C@@]35OO4)CC1	11.4 nM	250 nM	–
C[C@H]1[C@H](N2CCN(C(=S)SCc3ccccc3Cl)CC2)O[C@@H]2O[C@@]3(C)CC[C@H]4[C@H](C)CC[C@@H]1[C@@]24OO3	23.7 nM	200 nM	–
C[C@H]1[C@H](N2CCN(C(=S)SCc3ccc(C#N)cc3)CC2)O[C@@H]2O[C@@]3(C)CC[C@H]4[C@H](C)CC[C@@H]1[C@@]24OO3	2.5 nM	180 nM	IC50 (RWPE-1): 10.5 nM; Activity (SMMC-7721 [2]): 26.43 - 27.05%; IC50 (DU-145): 6.3 nM; Activity (SMMC-7721 [3]): 2.2 - 2.98%; Activity (SMMC-7721 [4]): 21.86 - 24.63%; IC50 (CCD-18Co): 40.6 nM; Activity (SMMC-7721 [5]): 50.41 - 53.94%; IC50 (MCF7): 13.5 nM; IC50 (HCT-116): 40.2 nM; Activity (SMMC-7721 [6]): 12.36 - 14.62%; IC50 (MCF-10A): 22.4 nM; Activity (SMMC-7721 [7]): 1.5 - 1.77%; Activity (SMMC-7721 [8]): 61.22 - 63.68%; Activity (SMMC-7721 [9]): 6.72 - 9.36%; Activity (SMMC-7721 [10]): 28.05 - 29.95%; Activity (SMMC-7721 [11]): 30.54 - 31.3%; Activity (SMMC-7721 [12]): 3.07 - 4.04%; Activity (SMMC-7721 [13]): 45.82 - 46.69%
